Columns and labels:
Format in all cases: biochemical
Mtb20S = Mtb20S (Mycobacterium tuberculosis, UniProt P9WHT9); settings: for inhibitory potency against Mtb20S (in words): qualitative statement, comparison as stated in the sentence
human i-20S β5i = human i-20S β5i (Homo sapiens, UniProt P20618+P28062); assay: Human immunoproteasome inhibition assay; settings: for inhibitory potency against human i-20S (in words): qualitative statement, comparison as stated in the sentence
human c-20S β5c = human c-20S β5c (Homo sapiens, UniProt P20618+P28074); settings: qualitative statement; comparison as stated in the sentence

Chain of Mtb20S (P9WHT9 58-291): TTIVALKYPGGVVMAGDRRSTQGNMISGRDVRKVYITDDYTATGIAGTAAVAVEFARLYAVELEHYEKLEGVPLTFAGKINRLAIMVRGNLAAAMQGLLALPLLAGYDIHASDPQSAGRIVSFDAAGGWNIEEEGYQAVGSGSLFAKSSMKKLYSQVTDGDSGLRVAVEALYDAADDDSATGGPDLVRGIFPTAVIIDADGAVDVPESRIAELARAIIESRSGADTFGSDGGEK

SMILES	inhibitory potency against Mtb20S (in words) (Mtb20S)	selectivity for Mtb20S over both c-20S and i-20S (in words) (Mtb20S)	other results
Cc1cc(C(=O)N[C@@H](CC(=O)N2CCCC[C@@H]2C)C(=O)N[C@@H](C)C(=O)NCc2ccc(F)cc2F)no1 [A85]	maintaining potency		selectivity for Mtb20S over i-20S β5i (human i-20S β5i): 4 fold
Cc1cc(C(=O)N[C@@H](CC(=O)N2CCC[C@@H]2c2ccccc2)C(=O)N[C@@H](C)C(=O)NCc2ccc(F)cc2F)no1 [A86]			improvement in IC50 values against Mtb20S (Mtb20S; relative to A85): 2.4 fold
Cc1cc(C(=O)N[C@@H](CC(=O)N2CCC[C@@H]2c2ccccc2)C(=O)N[C@@H](C)C(=O)NCc2c(F)cccc2F)no1 [A119]	maintained		inhibitory potency against human i-20S (in words) (human i-20S β5i): reduced
COc1ccccc1CNC(=O)[C@H](C)NC(=O)[C@H](CC(=O)N1CCC[C@@H]1c1ccccc1)NC(=O)c1cc(C)on1 [A120]	reduced		inhibitory potency against human i-20S (in words) (human i-20S β5i): reduced; inhibitory potency against human c-20S (in words) (human c-20S β5c): reduced
Cc1cc(C(=O)N[C@@H](CC(=O)N2CCCC[C@@H]2C)C(=O)N[C@@H](C)c2ncc(-c3ccccc3)[nH]2)no1 [B1]	modest inhibitory activity		
Cc1cc(C(=O)N[C@@H](CC(=O)N2CCC[C@@H]2c2ccccc2)C(=O)N[C@@H](C)c2ncc(-c3ccccc3F)[nH]2)no1 [B6]	highly potent	markedly selective	
Cc1cc(C(=O)N[C@@H](CC(=O)N2CCC[C@@H]2c2ccccc2)C(=O)N[C@@H](C)c2ncc(-c3ccccc3)[nH]2)no1 [B36]	highly potent	markedly selective	
Cc1cc(C(=O)N[C@@H](CC(=O)N2CCC[C@@H]2c2ccccc2)C(=O)N[C@@H](C)c2ncc(-c3ccc(F)cc3F)[nH]2)no1 [B37]	highly potent	markedly selective	
